Laboratory results published in patent US9221795B2, “Phosphatidylinositol 3-kinase inhibitors” (Gilead Sciences, Inc., priority 2013, dated 2015).

What was measured:
[1] = Hepatocyte stability (parent drug disappearance in cryopreserved hepatocytes); format: in vitro ADME, human; conditions: human, human hepatocytes
Description: This assay was used to evaluate the metabolic stability of test articles (TA) following incubation in cryopreserved hepatocytes by monitoring parent drug disappearance via LC/MC. The TA was incubated with 1 million hepatocytes/mL at 2 μM substrate in duplicate. The incubation was carried out at 37° C. with 5% CO2 and saturating humidity. Samples were taken at 0, 1, 2, and 4 hours to monitor the disappearance of TA and a half-life (t1/2) was determined. Table 3 below summarizes the human hepatocyte t1/2 values (hours) collected in the Example.

basophils = experiment: Basophil activation in human whole blood (Flow2 CAST kit, CD63 flow cytometry); format: cell-based
Description: Effect on basophil activation was measured in human whole blood using the Flow2 CAST® kit (Buhlmann Laboratories AG, Baselstrasse, Switzerland) following the protocol provided by the manufacturer with minor modifications. Human whole blood was collected into K2-EDTA venipuncture tubes. Whole blood samples were treated with either DMSO (0.3% final) or a serial dilution of compounds in DMSO for 60 minutes at 37° C. Basophils were then activated either with anti-FcεRI mAb or with fMLP. To activate basophils using the anti-FcεRI mAb; 50 μL of whole blood was mixed with 110 μL of stimulation buffer (B-BAT-STB) and 20 μl of anti-FcεRI (B-BAT-STCON). To activate basophils with fMLP; 50 μL of whole blood was mixed with 80 μL of stimulation buffer (B-BAT-STB) and 50 μL of fMLP (B-CCR-FMLP). Stimulation buffer was used as a negative control. 20 μL of the staining reagent (combination of anti-human CD63-FITC and anti-human CCR3-PE mAbs) was then added to each tube. The tubes were mixed gently and incubated for 25 minutes at 37° C. Subsequently, erythrocytes were lysed and fixed by the addition of 2 mL of lysing solution (B-BAT-LYR) for 10 minutes at room temperature. Cells were pelleted by centrifugation at 1200 rpm for 10 minutes at room temperature in a swing-out rotor. Supernatant was aspirated and cell pellet resuspended in 400 μL of wash buffer. Flow cytometric analysis of the basophil activation was performed on a FC500MPL flow cytometer (Beckman Coulter Inc., Fullerton, Calif.). CCR3-staining and side scatter were applied to gate at least 200 basophils that expressed a high density of CCR3. The percent CD63 positive cells within the gated basophil population were determined in different treatment groups and normalized to the vehicle control (0.3% DMSO) with anti-FcεRI mAb of fMLP stimulus as 100%. Final compound concentration was adjusted to correct for dilution effect of added reagents. The EC50 values were calculated from the analysis of the dose-response curves to a four-parameter equation.

PI3Kδ = PI3Kδ (Homo sapiens (Human), UniProt O00329); experiment: Enzymatic activity of PI3K isoforms, TR-FRET assay (PI3Kδ); format: biochemical; conditions: 2× Km ATP, geometric mean if more than one value
Description: Enzymatic activity of the class I PI3K isoforms in the presence of the compounds of Table 1 and Compounds X, Y and Z was measured using a time-resolved fluorescence resonance energy transfer (TR-FRET) assay. The TR-FRET assay was used to monitor formation of the product 3,4,5-inositol triphosphate molecule (PIP3) as it competed with fluorescently labeled PIP3 for binding to the GRP-1 pleckstrin homology domain protein. An increase in […] product results in a decrease in TR-FRET signal as the labeled fluorophore is displaced from the GRP-1 protein binding site.
Class I PI3K isoforms were expressed and purified as heterodimeric recombinant proteins. All assay reagents and buffers for the TR-FRET assay were purchased from Millipore. PI3K isoforms were assayed under initial rate conditions in the presence of 25 mM Hepes (pH 7.4), and 2× Km ATP (75-500 μM), 2 μM PIP2, 5% glycerol, 5 mM MgCl2, 50 mM NaCl, 0.05% (v/v) Chaps, 1 mM dithiothreitol, 1% (v/v) DMSO at the following concentrations for each isoforms: PI3Kα, PI3Kβ, and PI3Kδ between 25 and 50 pM, and PI3Kγ at 2 nM. After an assay reaction time of 30 minutes at 25° C., reactions were terminated with a final concentration of 10 mM EDTA, 10 nM labeled-PIP3, and 35 nM Europium labeled GRP-1 detector protein before reading TR-FRET on an Envision plate reader (Ex: 340 nm; Em: 615/665 nm; […] delay and 500 μs read window).
Data were normalized based on positive ([…] wortmanin) and negative (DMSO) controls. α, β, δ, and γ IC50 values were calculated from the fit of the dose-response curves to a four-parameter equation. All IC50 values represent geometric mean values if more than one value was obtained. IC50 values were reported in units of nM.

[2] = cryopreserved human hepatocytes, class symbol, 2 μM substrate, 37° C.
[3] = cryopreserved human hepatocytes, 2 μM substrate, 37° C., Table 3
[4] = Homo sapiens, class symbol, human whole blood, basophils activated with anti-FcεRI mAb or fMLP, percent CD63 positive cells
[5] = Homo sapiens, human whole blood, basophils activated with anti-FcεRI mAb or fMLP, percent CD63 positive cells, geometric mean
[6] = cryopreserved hepatocytes, comparison Table 4
[7] = Homo sapiens, basophil activation in human whole blood, comparison Table 4
[8] = human whole blood, basophils activated with anti-FcεRI mAb or fMLP, percent CD63 positive cells, geometric mean

Chain of PI3Kδ (O00329 whole entry, the tested form may be a part, canonical isoform): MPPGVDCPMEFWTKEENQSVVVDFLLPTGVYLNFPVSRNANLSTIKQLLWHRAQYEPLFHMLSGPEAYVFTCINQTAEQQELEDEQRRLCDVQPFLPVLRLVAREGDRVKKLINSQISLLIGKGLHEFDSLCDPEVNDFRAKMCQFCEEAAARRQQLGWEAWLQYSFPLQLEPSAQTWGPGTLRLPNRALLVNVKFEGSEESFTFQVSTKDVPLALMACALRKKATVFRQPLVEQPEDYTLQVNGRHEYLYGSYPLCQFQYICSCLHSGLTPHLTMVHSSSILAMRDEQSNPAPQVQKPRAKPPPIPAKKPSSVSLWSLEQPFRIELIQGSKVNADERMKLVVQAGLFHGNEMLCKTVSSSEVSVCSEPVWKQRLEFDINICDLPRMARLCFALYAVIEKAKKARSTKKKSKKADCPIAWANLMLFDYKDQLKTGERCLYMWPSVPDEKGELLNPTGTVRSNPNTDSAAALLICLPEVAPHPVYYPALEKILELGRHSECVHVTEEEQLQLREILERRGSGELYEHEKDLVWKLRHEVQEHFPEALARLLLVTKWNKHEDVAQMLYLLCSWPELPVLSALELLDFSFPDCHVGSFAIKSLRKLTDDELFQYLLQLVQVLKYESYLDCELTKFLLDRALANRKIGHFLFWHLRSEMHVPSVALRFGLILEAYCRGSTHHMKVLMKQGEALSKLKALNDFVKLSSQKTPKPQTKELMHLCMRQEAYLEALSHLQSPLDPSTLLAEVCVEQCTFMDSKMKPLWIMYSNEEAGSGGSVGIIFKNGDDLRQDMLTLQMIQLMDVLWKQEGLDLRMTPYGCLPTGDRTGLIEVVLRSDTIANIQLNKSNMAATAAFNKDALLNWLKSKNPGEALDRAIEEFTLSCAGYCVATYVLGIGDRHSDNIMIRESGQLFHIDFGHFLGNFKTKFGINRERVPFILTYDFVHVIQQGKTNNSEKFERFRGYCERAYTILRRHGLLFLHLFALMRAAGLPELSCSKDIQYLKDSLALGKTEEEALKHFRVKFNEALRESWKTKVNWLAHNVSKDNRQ
Chain of PI3Kδ (P27986 whole entry partner, the tested form may be a part, canonical isoform): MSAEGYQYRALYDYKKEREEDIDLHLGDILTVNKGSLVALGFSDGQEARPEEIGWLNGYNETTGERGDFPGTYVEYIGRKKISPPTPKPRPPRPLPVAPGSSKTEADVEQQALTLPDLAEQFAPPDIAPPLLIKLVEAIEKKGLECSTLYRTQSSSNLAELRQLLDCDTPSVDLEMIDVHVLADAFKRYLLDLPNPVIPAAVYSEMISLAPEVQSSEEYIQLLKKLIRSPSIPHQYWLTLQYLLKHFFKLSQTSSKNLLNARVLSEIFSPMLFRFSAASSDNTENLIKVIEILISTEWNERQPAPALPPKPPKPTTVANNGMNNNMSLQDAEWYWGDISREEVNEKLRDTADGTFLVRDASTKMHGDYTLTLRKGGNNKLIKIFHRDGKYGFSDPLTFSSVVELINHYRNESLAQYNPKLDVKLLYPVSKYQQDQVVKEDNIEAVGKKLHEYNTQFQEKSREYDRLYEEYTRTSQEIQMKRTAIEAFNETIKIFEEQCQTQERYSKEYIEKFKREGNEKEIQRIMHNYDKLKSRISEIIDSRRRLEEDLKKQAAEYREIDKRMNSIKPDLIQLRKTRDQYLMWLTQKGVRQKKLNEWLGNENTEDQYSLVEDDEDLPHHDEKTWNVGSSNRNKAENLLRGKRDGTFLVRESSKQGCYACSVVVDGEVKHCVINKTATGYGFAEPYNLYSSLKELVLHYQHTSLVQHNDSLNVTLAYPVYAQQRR

For C[C@H](Nc1nc(N)nc(N)c1C#N)c1nc2c(Cl)cccc2c(=O)n1-c1cccnc1 [Compound 22, (S)-2,4-diamino-6-(1-(8-chloro-4-oxo-3-(pyridin-3-yl)-3,4-dihydroquinazolin-2-yl)ethylamino)pyrimidine-5-carbonitrile], the half-life at 2 μM [1, 2] was 6 to 10 h, the half-life at 2 μM [1, 3] was 9 h and the EC50 (basophils; [4]) was 1 to 10 nM. The EC50 (basophils; [5]) was 5 nM and the IC50 (PI3Kδ) was 6 nM.

Work on C[C@H](Nc1ncnc(N)c1C#N)c1nc2cccc(Cl)c2c(=O)n1-c1ccccc1 [Compound Y, reference compound] yielded a half-life at 2 μM [1, 6] of less than 2 h and an EC50 (basophils; [7]) greater than 10 nM.

For Cc1c(F)cncc1-n1c([C@H](C)Nc2nc(N)nc(N)c2C#N)nc2cccc(Cl)c2c1=O (atropisomer, axis not shown) [Compound 46, (S)-2,4-diamino-6-(1-(5-chloro-3-(5-fluoro-4-methylpyridin-3-yl)-4-oxo-3,4-dihydroquinazolin-2-yl)ethylamino)pyrimidine-5-carbonitrile], the half-life at 2 μM [1, 2] was 6 to 10 h, the half-life at 2 μM [1, 3] was 8 h and the IC50 (PI3Kδ) was 38 nM.

Compound C[C@H](Nc1ncnc2[nH]cnc12)c1nc2cccc(Cl)c2c(=O)n1-c1ccccc1 [Compound X, reference compound] has a half-life at 2 μM [1, 6] of less than 2 h and an EC50 (basophils; [7]) greater than 5 nM.

Work on Cc1ncccc1-n1c([C@H](C)Nc2nc(N)nc(N)c2C#N)nc2cccc(Cl)c2c1=O (atropisomer, axis not shown) [Compound 38, (S)-2,4-diamino-6-(1-(5-chloro-3-(2-methylpyridin-3-yl)-4-oxo-3,4-dihydroquinazolin-2-yl)ethylamino)pyrimidine-5-carbonitrile] yielded an EC50 (basophils; [4]) of 1 to 10 nM, an EC50 (basophils; [8]) of 9 nM and an IC50 (PI3Kδ) of 13 nM.

For Cc1ccncc1-n1c([C@H](C)Nc2nc(N)nc(N)c2C#N)nc2cccc(Cl)c2c1=O (atropisomer, axis not shown) [Compound 40, (S)-2,4-diamino-6-(1-(5-chloro-3-(4-methylpyridin-3-yl)-4-oxo-3,4-dihydroquinazolin-2-yl)ethylamino)pyrimidine-5-carbonitrile], the EC50 (basophils; [4]) was 1 to 10 nM, the EC50 (basophils; [5]) was 7 nM and the IC50 (PI3Kδ) was 9 nM.

Work on C[C@H](Nc1nc(N)nc(N)c1C#N)c1nc2cccc(S(C)(=O)=O)c2c(=O)n1-c1cccnc1 [Compound 8, (S)-2,4-diamino-6-(1-(5-(methylsulfonyl)-4-oxo-3-(pyridin-3-yl)-3,4-dihydroquinazolin-2-yl)ethylamino)pyrimidine-5-carbonitrile] yielded an EC50 (basophils; [4]) greater than 50 nM, an EC50 (basophils; [5]) of 100 nM and an IC50 (PI3Kδ) of 9 nM.

C[C@H](Nc1nc(N)nc(N)c1C#N)c1nc2cccc(C#N)c2c(=O)n1-c1cccnc1 [Compound 10, (S)-2-(1-((2,6-diamino-5-cyanopyrimidin-4-yl)amino)ethyl)-4-oxo-3-(pyridin-3-yl)-3,4-dihydroquinazoline-5-carbonitrile] showed an EC50 (basophils; [4]) of 10 to 50 nM, an EC50 (basophils; [5]) of 17 nM and an IC50 (PI3Kδ) of 9 nM.

In the case of C[C@H](Nc1nc(N)nc(N)c1C#N)c1nc2cccc(Cl)c2c(=O)n1-c1cncc(Cl)c1 [Compound 13, (S)-2,4-diamino-6-(1-(5-chloro-3-(5-chloropyridin-3-yl)-4-oxo-3,4-dihydroquinazolin-2-yl)ethylamino)pyrimidine-5-carbonitrile], the EC50 (basophils; [4]) is reported as 1 to 10 nM, the EC50 (basophils; [5]) is reported as 4 nM and the IC50 (PI3Kδ) is reported as 8 nM.

Compound C[C@H](Nc1nc(N)nc(N)c1C#N)c1nc2cccc(Cl)c2c(=O)n1-c1ccccc1 [Compound Z, reference compound] has a half-life at 2 μM [1, 6] of less than 5 h and an EC50 (basophils; basophil activation in human whole blood, comparison Table 4) of less than 1 nM.

Compound C[C@H](Nc1nc(N)nc(N)c1C#N)c1nc2ccc(F)c(Cl)c2c(=O)n1-c1cccnc1 [Compound 36, (S)-2,4-diamino-6-(1-(5-chloro-6-fluoro-4-oxo-3-(pyridin-3-yl)-3,4-dihydroquinazolin-2-yl)ethylamino)pyrimidine-5-carbonitrile] has an EC50 (basophils; [4]) of 1 to 10 nM, an EC50 (basophils; [5]) of 2 nM and an IC50 (PI3Kδ) of 4 nM.

Work on C[C@H](Nc1nc(N)nc(N)c1C#N)c1nc2c(F)ccc(F)c2c(=O)n1-c1cccnc1 [Compound 25, (S)-2,4-diamino-6-(1-(5,8-difluoro-4-oxo-3-(pyridin-3-yl)-3,4-dihydroquinazolin-2-yl)ethylamino)pyrimidine-5-carbonitrile] yielded an EC50 (basophils; [4]) of 10 to 50 nM, an EC50 (basophils; [5]) of 11 nM and an IC50 (PI3Kδ) of 8 nM.

With C[C@H](Nc1nc(N)nc(N)c1C#N)c1nc2cccc(Cl)c2c(=O)n1-c1cncc(C(F)(F)F)c1 [Compound 18, (S)-2,4-diamino-6-(1-(5-chloro-4-oxo-3-(5-(trifluoromethyl)pyridin-3-yl)-3,4-dihydroquinazolin-2-yl)ethylamino)pyrimidine-5-carbonitrile] the EC50 (basophils; [4]) was 10 to 50 nM, the EC50 (basophils; [5]) was 22 nM and the IC50 (PI3Kδ) was 18 nM.

For CC[C@H](Nc1nc(N)nc(N)c1C#N)c1nc2c(F)ccc(C#N)c2c(=O)n1-c1cccnc1 [Compound 35, (S)-2-(1-((2,6-diamino-5-cyanopyrimidin-4-yl)amino)propyl)-8-fluoro-4-oxo-3-(pyridin-3-yl)-3,4-dihydroquinazoline-5-carbonitrile], the EC50 (basophils; [4]) was greater than 50 nM, the EC50 (basophils; [5]) was 62 nM and the IC50 (PI3Kδ) was 35 nM.

Compound N#Cc1c(N)nc(N)nc1N[C@@H](CC1CC1)c1nc2cccc(Cl)c2c(=O)n1-c1cccnc1 [Compound 4, (S)-2,4-diamino-6-(1-(5-chloro-4-oxo-3-(pyridin-3-yl)-3,4-dihydroquinazolin-2-yl)-2-cyclopropylethylamino)pyrimidine-5-carbonitrile] has an EC50 (basophils; [4]) of 10 to 50 nM, an EC50 (basophils; [5]) of 22 nM and an IC50 (PI3Kδ) of 5 nM.

Cc1ccncc1-n1c([C@H](C)Nc2nc(N)nc(N)c2C#N)nc2ccc(F)c(Cl)c2c1=O (atropisomer, axis not shown) [Compound 42, (S)-2,4-diamino-6-(1-(5-chloro-6-fluoro-3-(4-methylpyridin-3-yl)-4-oxo-3,4-dihydroquinazolin-2-yl)ethylamino)pyrimidine-5-carbonitrile] showed an EC50 (basophils; [4]) of 1 to 10 nM, an EC50 (basophils; [8]) of 8 nM and an IC50 (PI3Kδ) of 27 nM.

With Cc1ccncc1-n1c([C@H](C)Nc2nc(N)nc(N)c2C#N)nc2ccc(F)c(Cl)c2c1=O (atropisomer, axis not shown) [Compound 43, (S)-2,4-diamino-6-(1-(5-chloro-6-fluoro-3-(4-methylpyridin-3-yl)-4-oxo-3,4-dihydroquinazolin-2-yl)ethylamino)pyrimidine-5-carbonitrile] the EC50 (basophils; class symbol, human whole blood, basophils activated with anti-FcεRI mAb or fMLP, percent CD63 positive cells) was 1 to 10 nM, the EC50 (basophils; [8]) was 2 nM and the IC50 (PI3Kδ) was 4 nM.

Compound C[C@H](Nc1nc(N)nc(N)c1C#N)c1nc2c(F)ccc(C#N)c2c(=O)n1-c1cccnc1 [Compound 34, (S)-2-(1-((2,6-diamino-5-cyanopyrimidin-4-yl)amino)ethyl)-8-fluoro-4-oxo-3-(pyridin-3-yl)-3,4-dihydroquinazoline-5-carbonitrile] has an EC50 (basophils; [4]) of 10 to 50 nM, an EC50 (basophils; [5]) of 22 nM and an IC50 (PI3Kδ) of 21 nM.
